Reference: patent US20080009418A1, “Selective Inhibitors” (Alchemia LTD., priority 2004, published 2008)

Experiments:
Human δ-opioid (DOP) = biological target: T1, Human δ-opioid (DOP) (Homo sapiens, UniProt P41143); experiment: Radioligand binding, human δ-opioid (DOP) membranes, FlashPlate, [3H]-Bremazocine; conditions: compound at 10 μM; [3H]-Bremazocine
T1 construct: purchased Perkin Elmer Biosignal
Summary of the method: (§1)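 Cloned human receptor membranes were coated onto FlashPlate wells and incubated with radioligand and compound (added from a 0.5 mM DMSO daughter plate) for 1 hour at room temperature in the dark. Scintillation counting gave percent inhibition, with DMSO defining total and reference ligand defining non-specific binding.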

Human κ-Opioid (KOP) = biological target: T2, Human κ-Opioid (KOP) (Homo sapiens, UniProt P41145); experiment: Radioligand binding, human κ-opioid (KOP) membranes, filtration, [3H]-Diprenorphine; conditions: compound at 10 μM; [3H]-Diprenorphine
T2 construct: purchased Perkin Elmer Biosignal
Summary of the method: (§2)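 Percent inhibition of radioligand binding measured on recombinant human membranes: NK1 with [125I]-Substance P, KOP with [3H]-Diprenorphine. Incubation 1 h at room temperature, then harvest onto 0.3% PEI-soaked filters, cold Tris-HCl pH 7.4 washes and scintillation counting; non-specific binding from reference ligand wells.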

Human Melanocortin (MC3) = biological target: T3, Human Melanocortin (MC3) (Homo sapiens, UniProt P41968); experiment: Radioligand binding, human melanocortin MC3 membranes, FlashPlate, [125I]-NDP-αMSH; conditions: compound at 10 μM; [125I]-NDP-αMSH
T3 construct: purchased Perkin Elmer Biosignal
Summary of the method: as §1

Human Melanocortin (MC4) = biological target: T4, Human Melanocortin (MC4) (Homo sapiens, UniProt P32245); experiment: Radioligand binding, human melanocortin MC4 membranes, FlashPlate, [125I]-NDP-αMSH; conditions: compound at 10 μM; [125I]-NDP-αMSH
T4 construct: purchased Perkin Elmer Biosignal
Summary of the method: as §1

Human melanocortin (MC5) = biological target: T5, Human melanocortin (MC5) (Homo sapiens, UniProt P33032); experiment: Radioligand binding, human melanocortin MC5 membranes, FlashPlate, [125I]-NDP-αMSH; conditions: compound at 10 μM; [125I]-NDP-αMSH
T5 construct: purchased Perkin Elmer Biosignal
Summary of the method: as §1

[1] = biological target: T6, Human melanin-concentrating hormone (MCH1) (Homo sapiens, UniProt Q99705); experiment: Radioligand binding, human melanin-concentrating hormone MCH1 membranes, FlashPlate, [125I]-S36057; conditions: compound at 10 μM; [125I]-S36057
T6 construct: purchased Perkin Elmer Biosignal
Summary of the method: as §1

Human μ-opioid (MOP) = biological target: T7, Human μ-opioid (MOP) (Homo sapiens, UniProt P35372); experiment: Radioligand binding, human μ-opioid (MOP) membranes, FlashPlate, [3H]-Naloxone; conditions: compound at 10 μM, [3H]-Naloxone
T7 construct: purchased Perkin Elmer Biosignal
Summary of the method: as §1

Human neurokinin (NK1) = biological target: T8, Human neurokinin (NK1) (Homo sapiens, UniProt P25103); experiment: Radioligand binding, human neurokinin NK1 membranes, filtration, [125I]-Substance P; conditions: compound at 10 μM, [125I]-Substance P
T8 construct: purchased Perkin Elmer Biosignal
Summary of the method: as §2

[2] = biological target: T9, Human neuropeptide Y (NPY-Y1) (Homo sapiens, UniProt P25929); experiment: Radioligand binding, human neuropeptide Y NPY-Y1 membranes, FlashPlate, [125I]-PYY; conditions: compound at 10 μM; [125I]-PYY
T9 construct: purchased Perkin Elmer Biosignal
T9 sequence (P25929 1-384): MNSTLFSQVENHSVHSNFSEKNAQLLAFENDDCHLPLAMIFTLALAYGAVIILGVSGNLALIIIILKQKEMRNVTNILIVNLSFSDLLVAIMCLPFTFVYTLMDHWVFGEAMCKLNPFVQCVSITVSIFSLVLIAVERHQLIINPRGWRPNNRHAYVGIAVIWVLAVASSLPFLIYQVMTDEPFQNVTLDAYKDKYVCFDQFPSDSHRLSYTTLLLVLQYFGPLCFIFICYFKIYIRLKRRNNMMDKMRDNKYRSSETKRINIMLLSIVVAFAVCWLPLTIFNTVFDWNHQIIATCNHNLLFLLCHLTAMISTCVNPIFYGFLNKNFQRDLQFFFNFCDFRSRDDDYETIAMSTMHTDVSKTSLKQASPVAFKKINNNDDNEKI
Summary of the method: as §1

Human opioid (ORL1) = biological target: T10, Human opioid (ORL1) (Homo sapiens, UniProt P41146); experiment: Radioligand binding, human opioid ORL1 membranes, FlashPlate, [125I]-Nociceptin; conditions: compound at 10 μM, [125I]-Nociceptin
T10 construct: purchased Perkin Elmer Biosignal
Summary of the method: as §1

Mouse urotensin (mUR2) = biological target: T11, Mouse urotensin (mUR2) (Mus musculus, UniProt Q8VIH9); experiment: Radioligand binding, mouse urotensin mUR2 membranes, FlashPlate, [125I]-Urotensin II; conditions: compound at 10 μM; [125I]-Urotensin II
T11 construct: purchased Perkin Elmer Biosignal
T11 sequence (Q8VIH9 1-385): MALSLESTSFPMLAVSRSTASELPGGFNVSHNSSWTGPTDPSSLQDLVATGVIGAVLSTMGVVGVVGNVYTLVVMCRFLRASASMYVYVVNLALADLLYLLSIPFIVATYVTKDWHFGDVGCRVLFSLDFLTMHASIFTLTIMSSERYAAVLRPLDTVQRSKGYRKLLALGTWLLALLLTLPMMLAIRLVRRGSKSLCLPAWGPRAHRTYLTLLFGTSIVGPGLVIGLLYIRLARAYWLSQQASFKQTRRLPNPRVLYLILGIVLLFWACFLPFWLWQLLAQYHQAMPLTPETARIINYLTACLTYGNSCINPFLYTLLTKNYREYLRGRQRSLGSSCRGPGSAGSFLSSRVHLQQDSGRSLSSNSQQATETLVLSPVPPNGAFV
Summary of the method: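 Cloned mouse urotensin (mUR2) receptor membranes from Perkin Elmer Biosignal were immobilized in FlashPlate microplates using a proprietary coating. Each well got 19.5 μl buffer, then 0.5 μl of DMSO, reference ligand, or compound. Adding 5 μl of [125I]-Urotensin II, diluted to 5× final concentration in binding buffer, started binding. Plates were sealed with TopSeal-A and incubated 1 hour at room temperature in the dark. Wells were counted for 30 seconds each on a TopCount after a 60-second delay, and percentage inhibition was calculated.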

T1 sequence (P41143 whole entry): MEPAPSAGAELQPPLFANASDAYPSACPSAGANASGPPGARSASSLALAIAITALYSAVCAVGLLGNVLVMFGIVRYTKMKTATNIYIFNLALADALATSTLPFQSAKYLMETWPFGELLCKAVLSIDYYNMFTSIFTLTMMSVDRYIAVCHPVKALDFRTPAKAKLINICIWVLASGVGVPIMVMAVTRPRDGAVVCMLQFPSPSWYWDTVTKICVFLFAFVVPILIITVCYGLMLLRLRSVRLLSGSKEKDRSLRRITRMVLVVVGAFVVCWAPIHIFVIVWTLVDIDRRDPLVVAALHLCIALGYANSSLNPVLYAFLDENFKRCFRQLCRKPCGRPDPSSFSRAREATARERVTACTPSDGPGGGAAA
T2 sequence (P41145 whole entry): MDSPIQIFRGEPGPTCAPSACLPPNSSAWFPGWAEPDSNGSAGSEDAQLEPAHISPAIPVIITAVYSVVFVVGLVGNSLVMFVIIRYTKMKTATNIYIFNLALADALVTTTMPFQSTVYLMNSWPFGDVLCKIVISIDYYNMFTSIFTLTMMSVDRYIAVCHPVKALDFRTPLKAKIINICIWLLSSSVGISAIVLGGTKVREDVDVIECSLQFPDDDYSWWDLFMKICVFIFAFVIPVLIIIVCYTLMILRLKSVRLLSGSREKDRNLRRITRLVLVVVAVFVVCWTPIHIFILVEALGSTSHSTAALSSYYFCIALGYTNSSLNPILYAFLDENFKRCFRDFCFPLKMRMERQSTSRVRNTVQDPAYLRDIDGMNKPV
T3 sequence (P41968 whole entry): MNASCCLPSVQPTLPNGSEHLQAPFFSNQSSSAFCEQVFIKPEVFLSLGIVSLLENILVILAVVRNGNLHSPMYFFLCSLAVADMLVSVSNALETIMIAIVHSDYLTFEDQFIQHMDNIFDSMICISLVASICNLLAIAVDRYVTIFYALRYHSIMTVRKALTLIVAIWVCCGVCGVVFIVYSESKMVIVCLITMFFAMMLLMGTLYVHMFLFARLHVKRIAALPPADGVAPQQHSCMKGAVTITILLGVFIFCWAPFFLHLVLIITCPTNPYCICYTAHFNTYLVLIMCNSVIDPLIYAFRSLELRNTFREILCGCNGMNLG
T6 sequence (Q99705 whole entry): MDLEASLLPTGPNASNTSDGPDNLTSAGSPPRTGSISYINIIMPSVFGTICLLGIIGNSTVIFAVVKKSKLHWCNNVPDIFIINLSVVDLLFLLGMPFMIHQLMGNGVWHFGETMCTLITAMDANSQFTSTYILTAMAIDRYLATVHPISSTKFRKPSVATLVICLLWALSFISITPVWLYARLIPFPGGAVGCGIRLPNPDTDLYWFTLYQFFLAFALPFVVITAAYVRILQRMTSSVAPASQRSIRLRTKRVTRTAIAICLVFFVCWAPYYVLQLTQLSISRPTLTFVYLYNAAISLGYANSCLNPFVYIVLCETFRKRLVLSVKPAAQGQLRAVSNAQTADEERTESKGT
T10 sequence (P41146 whole entry): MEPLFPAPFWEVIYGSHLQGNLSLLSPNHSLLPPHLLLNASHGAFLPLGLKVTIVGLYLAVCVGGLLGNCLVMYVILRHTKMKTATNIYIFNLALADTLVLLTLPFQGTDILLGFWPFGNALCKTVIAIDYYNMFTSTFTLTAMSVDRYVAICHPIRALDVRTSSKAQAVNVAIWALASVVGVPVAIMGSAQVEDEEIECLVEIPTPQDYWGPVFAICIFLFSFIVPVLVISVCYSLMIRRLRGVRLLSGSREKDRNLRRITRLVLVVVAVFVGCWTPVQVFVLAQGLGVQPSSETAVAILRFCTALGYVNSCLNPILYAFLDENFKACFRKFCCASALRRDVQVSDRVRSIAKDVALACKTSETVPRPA
T4 sequence (P32245 whole entry): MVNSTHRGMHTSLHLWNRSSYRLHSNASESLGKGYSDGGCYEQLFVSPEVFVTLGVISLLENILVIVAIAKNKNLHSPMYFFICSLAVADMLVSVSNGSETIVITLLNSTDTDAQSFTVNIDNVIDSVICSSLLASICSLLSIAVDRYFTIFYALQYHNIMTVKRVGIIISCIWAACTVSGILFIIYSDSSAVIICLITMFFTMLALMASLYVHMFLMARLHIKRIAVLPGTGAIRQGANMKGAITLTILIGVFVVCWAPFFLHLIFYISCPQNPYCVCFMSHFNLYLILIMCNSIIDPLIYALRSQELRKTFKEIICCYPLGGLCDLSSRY
T8 sequence (P25103 whole entry): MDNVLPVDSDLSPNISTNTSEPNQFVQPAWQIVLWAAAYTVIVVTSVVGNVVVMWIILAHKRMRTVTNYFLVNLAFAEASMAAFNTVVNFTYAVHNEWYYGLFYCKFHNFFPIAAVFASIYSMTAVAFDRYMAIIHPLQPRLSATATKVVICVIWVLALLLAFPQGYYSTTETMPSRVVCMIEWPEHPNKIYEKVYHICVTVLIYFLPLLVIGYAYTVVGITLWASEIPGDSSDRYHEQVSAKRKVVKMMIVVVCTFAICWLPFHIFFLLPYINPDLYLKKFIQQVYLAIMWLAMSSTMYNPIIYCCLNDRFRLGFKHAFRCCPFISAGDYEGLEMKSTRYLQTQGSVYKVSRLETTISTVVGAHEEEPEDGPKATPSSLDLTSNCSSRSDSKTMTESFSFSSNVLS
T5 sequence (P33032 whole entry): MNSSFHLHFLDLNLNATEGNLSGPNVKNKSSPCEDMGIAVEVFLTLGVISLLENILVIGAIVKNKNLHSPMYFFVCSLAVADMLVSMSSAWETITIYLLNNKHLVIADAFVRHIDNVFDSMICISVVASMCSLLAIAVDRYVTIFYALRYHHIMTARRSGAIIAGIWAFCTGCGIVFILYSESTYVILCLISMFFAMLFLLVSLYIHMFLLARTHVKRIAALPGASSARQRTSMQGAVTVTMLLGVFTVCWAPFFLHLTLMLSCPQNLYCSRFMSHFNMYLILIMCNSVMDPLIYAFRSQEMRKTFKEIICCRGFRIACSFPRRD
T7 sequence (P35372 whole entry): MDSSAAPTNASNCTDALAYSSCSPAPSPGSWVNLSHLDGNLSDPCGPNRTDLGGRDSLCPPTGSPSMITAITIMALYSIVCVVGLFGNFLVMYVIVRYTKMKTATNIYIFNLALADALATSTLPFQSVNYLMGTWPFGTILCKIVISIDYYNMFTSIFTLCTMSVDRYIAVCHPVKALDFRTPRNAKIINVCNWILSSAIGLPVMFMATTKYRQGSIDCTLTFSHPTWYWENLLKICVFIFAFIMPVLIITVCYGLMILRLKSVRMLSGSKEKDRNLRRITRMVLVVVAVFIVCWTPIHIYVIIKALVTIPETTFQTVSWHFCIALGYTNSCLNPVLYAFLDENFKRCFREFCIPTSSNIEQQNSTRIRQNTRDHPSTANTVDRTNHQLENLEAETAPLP

Structure (SMILES) | A1: inhibition of radioligand binding, human δ-opioid (DOP) (Human δ-opioid (DOP)) | A2: inhibition of radioligand binding, human κ-opioid (KOP) (Human κ-Opioid (KOP)) | A3: inhibition of radioligand binding, human melanocortin (MC3) (Human Melanocortin (MC3)) | A4: inhibition of radioligand binding, human melanocortin (MC4) (Human Melanocortin (MC4)) | A5: inhibition of radioligand binding, human melanocortin (MC5) (Human melanocortin (MC5)) | A6: inhibition of radioligand binding, human melanin-concentrating hormone (MCH1) [1] | A7: inhibition of radioligand binding, human μ-opioid (MOP) (Human μ-opioid (MOP)) | A8: inhibition of radioligand binding, human neurokinin (NK1) (Human neurokinin (NK1)) | A9: inhibition of radioligand binding, human neuropeptide Y (NPY-Y1) [2] | A10: inhibition of radioligand binding, human opioid (ORL1) (Human opioid (ORL1)) | A11: inhibition of radioligand binding, mouse urotensin (mUR2) (Mouse urotensin (mUR2)) | A8: inhibition of radioligand binding, human neurokinin (NK1) (Human neurokinin (NK1); 10 µM) | A7: inhibition of radioligand binding, human μ-opioid (MOP) (Human μ-opioid (MOP); 10 µM) | A10: inhibition of radioligand binding, human opioid (ORL1) (Human opioid (ORL1); 10 µM)
CSC1OC(COCc2cccc(N)c2)C(O)C(OCc2ccc(Cl)cc2)C1NC(=O)c1c[nH]c2ccccc12 (stereo not drawn) [compound 334] | − (“−” indicates less than 50% inhibition at 10 μM) | − (“−” indicates less than 50% inhibition at 10 μM) | − (“−” indicates less than 50% inhibition at 10 μM) | − (“−” indicates less than 50% inhibition at 10 μM) | − (“−” indicates less than 50% inhibition at 10 μM) | − (“−” indicates less than 50% inhibition at 10 μM) | − (“−” indicates less than 50% inhibition at 10 μM) | + (“+” indicates greater than 50% inhibition at 10 μM) | − (“−” indicates less than 50% inhibition at 10 μM) | − (“−” indicates less than 50% inhibition at 10 μM) | − (“−” indicates less than 50% inhibition at 10 μM) | – | – | –
COCC1OC(OCCc2ccccc2)C(NC(=O)CNC(=N)N)C(OCc2ccc(-c3ccccc3)cc2)C1O (stereo not drawn) [compound 549] | − (“−” indicates less than 50% inhibition at 10 μM) | − (“−” indicates less than 50% inhibition at 10 μM) | − (“−” indicates less than 50% inhibition at 10 μM) | − (“−” indicates less than 50% inhibition at 10 μM) | + (“+” indicates greater than 50% inhibition at 10 μM) | − (“−” indicates less than 50% inhibition at 10 μM) | − (“−” indicates less than 50% inhibition at 10 μM) | – | − (“−” indicates less than 50% inhibition at 10 μM) | − (“−” indicates less than 50% inhibition at 10 μM) | − (“−” indicates less than 50% inhibition at 10 μM) | − (“−” indicates less than 50% inhibition at 10 μM) | – | –
CSC1O[C@H](COCc2ccc3ccccc3c2)[C@@H](O)[C@@H](OCc2ccc(-c3ccccc3)cc2)[C@H]1NC(=O)CN (stereo partly drawn) [compound 295] | − (“−” indicates less than 50% inhibition at 10 μM) | − (“−” indicates less than 50% inhibition at 10 μM) | − (“−” indicates less than 50% inhibition at 10 μM) | − (“−” indicates less than 50% inhibition at 10 μM) | − (“−” indicates less than 50% inhibition at 10 μM) | − (“−” indicates less than 50% inhibition at 10 μM) | − (“−” indicates less than 50% inhibition at 10 μM) | + (“+” indicates greater than 50% inhibition at 10 μM) | − (“−” indicates less than 50% inhibition at 10 μM) | − (“−” indicates less than 50% inhibition at 10 μM) | − (“−” indicates less than 50% inhibition at 10 μM) | – | – | –
COC[C@H]1OC(OCc2ccc(Cl)cc2)[C@H](NC(=O)CCCN)[C@@H](OCc2ccc(-c3ccccc3)cc2)[C@@H]1O (stereo partly drawn) [compound 342] | − (“−” indicates less than 50% inhibition at 10 μM) | − (“−” indicates less than 50% inhibition at 10 μM) | − (“−” indicates less than 50% inhibition at 10 μM) | + (“+” indicates greater than 50% inhibition at 10 μM) | − (“−” indicates less than 50% inhibition at 10 μM) | − (“−” indicates less than 50% inhibition at 10 μM) | + (“+” indicates greater than 50% inhibition at 10 μM) | + (“+” indicates greater than 50% inhibition at 10 μM) | − (“−” indicates less than 50% inhibition at 10 μM) | − (“−” indicates less than 50% inhibition at 10 μM) | − (“−” indicates less than 50% inhibition at 10 μM) | – | – | –
NCCCC(=O)NC1C(OCc2ccc(Cl)cc2)OC(COCc2ccc(Cl)cc2)C(O)C1OCc1ccccc1 (single isomer, unassigned) [compound 505] | − (“−” indicates less than 50% inhibition at 10 μM) | − (“−” indicates less than 50% inhibition at 10 μM) | − (“−” indicates less than 50% inhibition at 10 μM) | − (“−” indicates less than 50% inhibition at 10 μM) | + (“+” indicates greater than 50% inhibition at 10 μM) | − (“−” indicates less than 50% inhibition at 10 μM) | – | + (“+” indicates greater than 50% inhibition at 10 μM) | − (“−” indicates less than 50% inhibition at 10 μM) | – | − (“−” indicates less than 50% inhibition at 10 μM) | – | + (“+” indicates greater than 50% inhibition at 10 μM) | − (“−” indicates less than 50% inhibition at 10 μM)
NCCC(=O)NC1C(OCc2ccc(Cl)cc2)OC(COCc2ccc(Cl)cc2)C(O)C1OCc1ccc(Cl)cc1 (single isomer, unassigned) [compound 476] | − (“−” indicates less than 50% inhibition at 10 μM) | − (“−” indicates less than 50% inhibition at 10 μM) | + (“+” indicates greater than 50% inhibition at 10 μM) | + (“+” indicates greater than 50% inhibition at 10 μM) | + (“+” indicates greater than 50% inhibition at 10 μM) | + (“+” indicates greater than 50% inhibition at 10 μM) | + (“+” indicates greater than 50% inhibition at 10 μM) | + (“+” indicates greater than 50% inhibition at 10 μM) | − (“−” indicates less than 50% inhibition at 10 μM) | + (“+” indicates greater than 50% inhibition at 10 μM) | − (“−” indicates less than 50% inhibition at 10 μM) | – | – | –
